From patent US12371432B2, “Haloallylamine compounds and application thereof” (TransThera Sciences (Nanjing), Inc., priority 2019, dated 2025)
Where a name gives a salt, the structure may show the parent alone.

Experiments:
rhAOC1 = target: T1, rhAOC1 (Homo sapiens, UniProt P19801); experiment: Selectivity against rhAOC1 enzyme (Biological Example 2); assay type: biochemical; settings: Table 2; histamine substrate, Amplex Red/HRP
T1 construct: purchased R&D
T1 sequence (P19801 20-751): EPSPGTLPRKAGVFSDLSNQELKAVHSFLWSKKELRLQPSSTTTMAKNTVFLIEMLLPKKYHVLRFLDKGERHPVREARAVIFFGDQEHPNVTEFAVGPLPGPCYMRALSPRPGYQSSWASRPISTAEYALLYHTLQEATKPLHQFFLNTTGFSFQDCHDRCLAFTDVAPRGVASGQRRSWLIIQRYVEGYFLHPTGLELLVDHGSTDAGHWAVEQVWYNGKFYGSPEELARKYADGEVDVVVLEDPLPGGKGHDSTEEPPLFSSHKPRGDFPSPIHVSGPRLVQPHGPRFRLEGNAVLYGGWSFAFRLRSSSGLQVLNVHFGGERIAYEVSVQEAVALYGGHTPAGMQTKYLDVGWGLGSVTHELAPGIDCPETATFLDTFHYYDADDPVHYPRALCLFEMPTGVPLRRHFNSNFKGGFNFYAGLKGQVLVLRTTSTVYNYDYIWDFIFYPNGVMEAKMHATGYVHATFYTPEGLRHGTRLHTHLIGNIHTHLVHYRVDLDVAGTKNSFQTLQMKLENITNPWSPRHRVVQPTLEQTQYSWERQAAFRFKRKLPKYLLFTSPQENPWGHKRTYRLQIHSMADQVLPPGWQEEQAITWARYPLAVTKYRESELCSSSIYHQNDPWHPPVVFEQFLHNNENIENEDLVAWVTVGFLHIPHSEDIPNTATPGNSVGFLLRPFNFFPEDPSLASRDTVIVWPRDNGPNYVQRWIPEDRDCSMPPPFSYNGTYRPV
Experimental: 2. Selectivity of Compounds Against rhAOC1 Enzyme
(§1) (1) Instrument, Consumable and Reagent
Microplate reader (Perkin Elmer, Nivo 5S), black unclear-bottom 96-well plate (Corning) and rhAOC1 (R&D)
(§2) (2) Preparation of Concentration Gradient Compound Solutions
An appropriate amount of the compound to be tested was taken, dissolved in DMSO to 10 mM and then stored. Before the study, an appropriate amount of mother liquor of the 10 mM compound to be tested was taken and gradiently diluted 3-fold with DMSO, 10 concentration gradients in total. Each concentration gradient was then diluted 10-fold with 0.1 M of PBS.
(§3) (3) Preparation of Enzyme Solutions
An appropriate amount of rhAOC1 mother liquor with a concentration of 0.441 mg/mL was taken and diluted with an appropriate amount of 50 mM HEPES buffer solution to obtain enzyme solutions of 4× concentrations.
(§4) (4) Preparation of Substrate Mixtures of 2× Concentrations
An appropriate amount of histamine was weighed and dissolved with 50 mM of HEPES buffer solution to obtain 20 mM of histamine solution. The histamine solution was added with 2 mM of Amplex Red mother liquor and 500 U/mL of HRP mother liquor and diluted with 50 mM of HEPES buffer solution to obtain substrate mixtures of 2× concentrations.
10 μL compound solutions of different concentrations, 25 μL rhAOC1 enzyme solutions of 4× concentrations and 15 μL of 50 mM HEPES buffer solution were first added into a 96-well plate, shaken to be mixed uniformly and then incubated at 37° C. for 30 min. 50 μL substrate mixtures of 2× concentrations were then added into each well, and the microplate reader was immediately used to detect fluorescence intensity of each well with 580 nm (20 nm) exciting light and 620 nm (10 nm) emission light for 5 min each time, 30 min in total. The inhibition rate was calculated according to the following formula: V (RFU/min)=(Ft (RFU)−F0 (RFU))/(time(min)) Inhibition rate (%)=100%−Vcmpd (RFU/min)/Vmax (RFU/min)×100%
V: fluorescence change rate; Ft: fluorescence reading at time point t; F0: initial fluorescence reading; Time: duration t; Vcmpd: fluorescence change rate of tested compound; Vmax: Max hole fluorescence change rate.
(6) Fitting of Dose-Response Curve
(§5) With the log value of concentration as the X axis and the percent inhibition rate as the Y axis, the log (inhibitor) vs. response-variable slope of analysis software GraphPad Prism 5 was used to fit a dose-response curve, thus obtaining the IC50 value of activity of each compound against the enzyme.

MAO-B = target: T2, MAO-B (Homo sapiens, UniProt P27338); experiment: Selectivity against MAO-B enzyme (MAO-Glo); assay type: biochemical
T2 construct: purchased Active Motif
T2 sequence (P27338 1-520): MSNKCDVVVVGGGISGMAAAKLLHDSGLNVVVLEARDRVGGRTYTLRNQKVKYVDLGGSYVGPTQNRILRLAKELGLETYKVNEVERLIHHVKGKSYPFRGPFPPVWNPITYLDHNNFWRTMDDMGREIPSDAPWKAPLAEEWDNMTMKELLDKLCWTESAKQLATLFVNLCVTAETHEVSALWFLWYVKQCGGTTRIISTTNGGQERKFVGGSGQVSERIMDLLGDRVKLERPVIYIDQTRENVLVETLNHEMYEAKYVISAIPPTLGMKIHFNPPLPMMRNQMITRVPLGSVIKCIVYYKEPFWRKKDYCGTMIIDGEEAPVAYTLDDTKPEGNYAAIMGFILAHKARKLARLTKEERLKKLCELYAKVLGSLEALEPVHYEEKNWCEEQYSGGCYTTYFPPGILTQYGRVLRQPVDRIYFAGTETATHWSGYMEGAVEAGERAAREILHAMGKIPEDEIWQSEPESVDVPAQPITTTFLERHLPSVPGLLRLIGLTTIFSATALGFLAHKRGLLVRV
Experimental: as §1
Microplate reader (Perkin Elmer, EnVision), 384-well plate (Perkin Elmer), centrifuge (Eppendorf), MAO-Glo™ (Promega), MAO-A (Active Motif) and MAO-B (Active Motif).
as §2
An appropriate amount of the compound to be tested was taken, dissolved in DMSO to 10 mM and then stored. The solution was then gradiently diluted 4-fold with DMSO, 6 concentration gradients in total.
as §3
MAO-A/B mother liquor was diluted with the experimental buffer for MAO-A/B to obtain enzyme solutions of 2× concentrations.
as §4
The mother liquor of MAO-A/B substrate mixture was diluted with the experimental buffer for MAO-A/B to obtain substrate mixtures of 2× concentrations.
200 nL compound solutions or solvents of different concentrations and 10 μL MAO-A/B enzyme solutions of 2× concentrations were added into a 384-well plate, centrifuged at 1,000 rpm for 60 s, shaken to be mixed uniformly and then incubated at room temperature for 15 min. 10 μL substrate mixtures of 2× concentrations were then added into each well, and reaction was initiated. The 384-well plate was centrifuged at 1,000 rpm for 60 s, shaken for a uniform mixing and then incubated at room temperature for 60 min. 20 μL of test stop solution was added to stop reaction. Centrifugation was performed at 1,000 rpm for 60 s, and shaking was performed for uniform mixing. After 30 min of standing, the microplate reader was used to perform reading.
The inhibition rate was calculated according to the following formula: Inhibition rate (%)=(Signal_Max-Signal_sample)/(Signal_Max-Signal_min)×100 (6) Fitting of Dose-Response Curve
as §5

Row | Structure (SMILES) | IC50 (rhAOC1) | IC50 (MAO-B)
1 | Cl.NC/C(=C\F)Cn1cc2c(c1Cl)CCN(C1CC1)C2=O [Compound A42 hydrochloride, (E)-2-(2-(aminomethyl)-3-fluoroallyl)-1-chloro-5-cyclopropyl-2,5,6,7-tetrahydro-4H-pyrrolo[3,4-c]pyridin-4-one] | 28.9 µM | > 100 µM
2 | CCn1ccc2nn(C/C(=C/F)CN)cc2c1=O [Compound A28 hydrochloride, (E)-2-(2-(aminomethyl)-3-fluoroallyl)-5-ethyl-2,5-dihydro-4H-pyrazolo[4,3-c]pyridin-4-one] | 4.06 µM | > 100 µM
3 | Cl.NC/C(=C\F)Cn1cc2c(c1Br)CCN(C1CC1)C2=O [Compound A32 hydrochloride, (E)-2-(2-(aminomethyl)-3-fluoroallyl)-1-bromo-5-cyclopropyl-2,5,6,7-tetrahydro-4H-pyrrolo[3,4-c]pyridin-4-one] | 23.6 µM | > 100 µM
4 | CCN1CCc2nn(C/C(=C/F)CN)cc2C1=O [Compound A6 hydrochloride, (E)-2-(2-(aminomethyl)-3-fluoroallyl)-5-ethyl-2,5,6,7-tetrahydro-4H-pyrazolo[4,3-c]pyridin-4-one] | 8.95 µM | > 100 µM
5 | NC/C(=C\F)Cn1cc2c(c1)C(=O)N(C1CC1)CC2 [Compound A22, (E)-2-(2-(aminomethyl)-3-fluoroallyl)-5-cyclopropyl-2,5,6,7-tetrahydro-4H-pyrrolo[3,4-c]pyridin-4-one] | 14.8 µM | > 100 µM
6 | NC/C(=C\F)Cn1ncc2c1CCN(C1CC1)C2=O [Compound A2 hydrochloride, (E)-1-(2-(aminomethyl)-3-fluoroallyl)-5-cyclopropyl-1,5,6,7-tetrahydro-4H-pyrazolo[4,3-c]pyridin-4-one] |  | > 100 µM
7 | CCN1CCc2cn(C/C(=C/F)CN)cc2C1=O [Compound A25, (E)-2-(2-(aminomethyl)-3-fluoroallyl)-5-ethyl-2,5,6,7-tetrahydro-4H-pyrrolo[3,4-c]pyridin-4-one] | 11.5 µM | > 100 µM
8 | CCn1ccc2c(cnn2C/C(=C/F)CN)c1=O [Compound A29 hydrochloride, (E)-1-(2-(aminomethyl)-3-fluoroallyl)-5-ethyl-1,5-dihydro-4H-pyrazolo[4,3-c]pyridin-4-one] | 0.674 µM | > 100 µM
9 | CNC(=O)c1cnn(C/C(=C/F)CN)c1 [Compound B1, (E)-1-(2-(aminomethyl)-3-fluoroallyl)-N-methyl-1H-pyrazole-4-carboxamide] | 3.18 µM | > 100 µM
10 | Cc1c2c(cn1C/C(=C/F)CN)C(=O)N(C1CC1)CC2 [Compound A35 hydrochloride, (E)-2-(2-(aminomethyl)-3-fluoroallyl)-5-cyclopropyl-1-methyl-2,5,6,7-tetrahydro-4H-pyrrolo[3,4-c]pyridin-4-one] | 7.03 µM | 92.7 µM
11 | CC(C)(C)N1CCc2nn(C/C(=C/F)CN)cc2C1=O [Compound A7 hydrochloride, (E)-2-(2-(aminomethyl)-3-fluoroallyl)-5-tert-butyl-2,5,6,7-tetrahydro-4H-pyrazolo[4,3-c]pyridin-4-one] | 50 µM | > 100 µM
12 | NC/C(=C\F)Cn1cc2c(=O)n(C3CC3)ccc2n1 [Compound A41, (E)-2-(2-(aminomethyl)-3-fluoroallyl)-5-cyclopropyl-2,5-dihydro-4H-pyrazolo[4,3-c]pyridin-4-one] | 9.65 µM | > 100 µM
13 | NC/C(=C\F)Cn1c(Br)c2c(c1Br)C(=O)N(C1CC1)CC2 [Compound A33 hydrochloride, (E)-2-(2-(aminomethyl)-3-fluoroallyl)-1,3-dibromo-5-cyclopropyl-2,5,6,7-tetrahydro-4H-pyrrolo[3,4-c]pyridin-4-one] | > 100 µM | > 100 µM
